The numbers were not newly measured in PMC6237330, “Bioactivity of selected materials for coffee substitute” (PLoS ONE, 2018), which cites them from elsewhere.

Molecules are shown by their SMILES.

One series relates to mice. Further details: method as in PMID 20237914. The settings on record: 2 mg furan/kg bwt.
A further series relates to animals. Further details: method as in earlier work. The conditions noted are these: in the laboratory.

Turning to `c1ccoc1` [furan], in the series with mice, the Tumor induction result is “may induce tumor”.

As for `C=CC(N)=O` [ACR, acrylamide], the Tumors in animals result with animals is “causes tumors in animals”.
